Experimental data: article PMC11422593, “Structural and biochemical analysis of highly similar HLA-B allotypes differentially associated with type 1 diabetes” (The Journal of Biological Chemistry, 2024)
Like-named read-outs stand apart in the source and are kept apart here. No end group written: not given here.

B1: … (Homo sapiens proteasome subunit 127–135) (peptide)
peptide: FRYQGHVGA
modifications: not fully specified
B2: … (NLRP2 320 to 328), free peptide (peptide)
peptide: NRVMLPKAA
B3: … (human insulin, position 4) (peptide)
peptide: WMRLLPLLA
B4: FLFLFAVG (human G6Pase 2, position 213) (peptide)
peptide: FLFLFAVG
B5: … (human G6Pase 2, position 328) (peptide)
peptide: SASIPLTVVA

Key:
HLA-B∗39:06 [1] = molecular target: T1, HLA-B∗39:06 (Homo sapiens, UniProt P01889, A182T/A93T/A95T/C349S/D138N/D201E/E176V/E187T/E204Q/K202T/L119W/Q94N/R155S/R180L/S121T/Y140F/Y91C); experiment: biochemical; format: binding
HLA-B∗39:01 = molecular target: T2, HLA-B∗39:01 (Homo sapiens, UniProt P01889, A182T/A93T/A95T/C349S/D138N/D201E/E176V/E187T/E204Q/K202T/Q94N/R155S/R180L/S121R/Y140F/Y91C); experiment: biochemical; format: binding
T2 construct: made in house

HLA-B∗38:01 [2] = molecular target: T3, HLA-B∗38:01 (Homo sapiens, UniProt P01889, A182T/A93T/A95T/C349S/D138N/D201E/D98Y/E176V/E187T/E204Q/G107R/K202T/L105A/N104I/Q94N/R106L/R155S/R180L/S101N/S121R/Y140F/Y91C); experiment: biochemical
HLA-B∗39:06 [3] = molecular target: T1, HLA-B∗39:06; conditions: cited from earlier work
Method: We previously reported the sequences of peptides endogenously bound to and eluted from HLA-B∗39:06 molecules purified from the human lymphoblastoid cell line C1R/HLA-B∗39:06 ([26]). […] Our strategy was based on the prior seminal observations of Ploegh et al. ([27]) that the incubation of cells at 26 °C allows for empty class I MHC molecules to reach the cell surface, and that the MHC can be stabilized if a binding peptide is also included. […] Assays to quantitatively measure peptide binding to purified B∗39:06 and B∗39:01 molecules were based on the inhibition of binding of a high-affinity radiolabeled peptide and performed as described ([26]).

[4] = molecular target: HLA-B∗39:06 (purified MHC molecules) (human); experiment: radioligand binding
[5] = molecular target: HLA-B∗38:01 (purified MHC molecules) (human); experiment: radioligand binding
[6] = molecular target: HLA-B∗39:01 (purified MHC molecules) (human); experiment: radioligand binding
HLA-B∗38:01 [7] = molecular target: T3, HLA-B∗38:01; parameters: made in house; conditions: read-out: IC50 of the probe peptide (HLA-B∗38:01 assay); cited from earlier work
[8] = molecular target: HLA-B∗38:01 (purified MHC molecules) (human); experiment: radioligand binding; cell-free competitive assay as for B∗39:06, with purified HLA-B∗38:01 and radiolabelled … as the probe

| Molecule | IC50 (HLA-B∗39:06 [1]) [nM] | IC50 (HLA-B∗39:01) [nM] | IC50 (HLA-B∗38:01 [2]) [µM] | IC50 [4] [nM] | IC50 [6] [nM] | further results |
| --- | --- | --- | --- | --- | --- | --- |
| CC(C)C[C@H](NC(=O)[C@H](CS)NC(=O)[C@@H]1CCCN1C(=O)[C@H](CO)NC(=O)[C@H](CO)NC(=O)[C@H](Cc1c[nH]cn1)NC(=O)[C@@H](N)CC(N)=O)C(=O)N[C@@H](CCC(=O)O)C(=O)N[C@@H](CCC(N)=O)C(=O)N[C@@H](Cc1ccccc1)C(=O)O | > 50000 | 25700 | – | – | – | – |
| CC(C)C[C@H](NC(=O)[C@H](C)NC(=O)[C@H](CC(N)=O)NC(=O)[C@H](CCC(=O)O)NC(=O)[C@@H](NC(=O)[C@H](C)NC(=O)[C@@H](NC(=O)[C@H](Cc1c[nH]cn1)NC(=O)[C@@H](N)CO)C(C)C)C(C)C)C(=O)O [SHVAVENAL, reference compound] | 696 | 11 | 0.321 | – | – | – |
| DHAVVVGV | – | – | – | – | – | rank of binding to HLA-B∗39:06 among the candidate endogenous ligands (HLA-B∗39:06 [3]; cell-free competitive assay, purified HLA-B∗39:06 and high-affinity radiolabeled ligand, also data not shown): by far the weakest HLA-B∗39:06 binder among the candidates |
| FLFLFAVG | 405 | 17900 | > 50 | – | – | – |
| FRLLCALTSL | 7.4 | 290 | 2.76 | – | – | – |
| FRYQGHVGA [Homo sapiens proteasome subunit 127–135, reference compound] | – | – | – | – | – | IC50 (HLA-B∗39:06 [3]; unlabeled version of the radiolabeled probe, read-out: IC50 of the probe peptide for B∗39:06): 24 nM |
| MRLLPLLA | 41 | 62 | 44.5 | – | – | – |
| MRLLPLLA (human insulin, position 5, 8mer) (peptide) | – | – | – | 41 | 62 | IC50 [5]: 44500 nM |
| MRLLPLLAL [MRLLPLLAL] | 677 | 14 | 0.85 | – | – | – |
| NRVMLPKA | 41 | 85 | – | – | – | – |
| NRVMLPKA (NLRP2, position 320, 8mer) (peptide) | – | – | – | 41 | 85 | – |
| NRVMLPKAA | 14 | 35 | > 50 | – | – | – |
| SASIPLTVVA | 310 | 30900 | > 50 | – | – | – |
| SHLVEALYL | 35600 | 5250 | 0.01 | – | – | – |
| THFPHQVIL | 2600 | 73 | 0.142 | – | – | – |
| TNLFLFLFAV | 354 | 3950 | 6.69 | – | – | – |
| WMRLLPLLA | 155 | 865 | > 50 | – | – | – |
| YHFLQIPT | 151 | 660 | 9.75 | – | – | – |
| YHFLQIPT (human G6Pase 2, position 307) (peptide) | – | – | – | 151 | 660 | IC50 [5]: 9750 nM |
| YHIPGDTLF | – | – | – | – | – | IC50 (HLA-B∗38:01 [7]): 1.4 nM |
| … (DDX3X, position 2) (peptide) | – | – | – | 696 | 11 | IC50 [5]: 321 nM |
| … (Variola virus RNA helicase 346–354) (peptide) | – | – | – | – | – | IC50 [5]: 1.4 nM |
| … (human insulin, position 5, 9mer) (peptide) | – | – | – | 677 | 14 | IC50 [5]: 850 nM |
| B1 | – | – | – | 24 | – | – |
| B2 | – | – | – | 14 | 35 | IC50 [8]: > 50 µM |
| B3 | – | – | – | 155 | 865 | IC50 [8]: > 50 µM |
| B4 | – | – | – | 405 | 17900 | IC50 [8]: > 50 µM |
| B5 | – | – | – | 310 | 30900 | IC50 [8]: > 50 µM |
